Data set [1] relates to mélanocytes humains normaux. The data set is described as follows: Melano-modulating effect: intracellular melanin / protein ratio in monolayer melanocytes (step 1 single actives, step 2 complex). The format is cell-based. Conditions: 72 h. The protocol: Ces essais ont été menés sur un modèle de mélanocytes humains normaux cultivés en mono couche.
Les mélanocytes humains normaux ont été mis en incubation pendant 72 heures en l'absence (témoin) ou en présence d'un produit de référence (acide kojique 250 µM)) ou de concentrations croissantes des produits actifs essayés.
Dans cette méthode, on dose le rapport mélanine/protéines en pourcentage du témoin. On a déterminé également les valeurs obtenues avec le solvant seul et une solution d'acide kojique à 250 µM dans ce solvant(DMSO) pris comme substance de référence.
Tableau II Véhicule (DMSO) et produit de référence
On a utilisé des mélanocytes humains normaux issus d'un sujet jeune âgé de 4 ans. On les a cultivé en monocouche jusqu'à confluence de 80%.
On a employé comme inhibiteur de tyrosinase de référence, l'acide kojique à 250 µM.
Les mélanocytes ont été mis en incubation pendant 72 heures à 37°C sous atmosphère humide et sous 5% de CO2 en l'absence (témoin) ou en présence d'acide kojique ou de concentrations croissantes de principes actifs à l'essai (0.1; 0.5 1%)
A la fin de la période d'incubation, le contenu intracellulaire en mélanine a été quantifié après lyse cellulaire par mesure spectrophotométrique à 405nm.
A la fin de la période d'incubation, les protéines contenues dans les lysats cellulaires ont été dosés par une méthode spectrocolorimétrique faisant appel au bleu de Coomassie (selon la méthode de Bradford M. Anal. Biochem. 72 (1976) 248-254).
Les résultats sont donnés sous forme de pourcentage de mélanine par rapport aux témoins (moyenne + ou- déviation standard SD) calculés à partir de valeurs obtenues en µg de mélanine intracellulaire par mg de protéines totales du tapis cellulaire.
On a déterminé la significativité statistique des différences constatées entre les conditions des « témoin » et « Produits à l'essai » selon une analyse de variance à un seul facteur (ANOVA) suivi d'un test de Holm-Sidak (* = […] < 0,05)

Data set [2] concerns mélanocytes humains normaux. The data set is described as follows: Cytotoxicity: viability of melanocytes by spectrophotometric assay of intracellular phosphatase activity (p-nitrophenyl phosphate, 405 nm). The protocol: On effectue la détermination sur des mélanocytes humains normaux obtenus à partir d'un sujet jeune (4 ans). Pour les réalisations des essais, les cellules ont été cultivées jusqu'à l'obtention de mono couches confluentes.
Les cellules ont mises en incubation pendant 72 heures en l'absence (essai témoin) ou en présence de concentrations croissantes de composé E ou de chacun des produits essayés. Pour le composé E, on a essayé des concentrations de 0.003; 0.03; 0.075; 0.15; 0.5; 0.75; 1.5 et 3% (v/v) et pour le produit selon l'invention : 0.01; 0.1; 0.25; 0.5; 1; 2.5; 5; 10% (v/v).
A titre de comparaison, on a préparé une solution à 10% d'acide kojique et une solution d'acide lactique à 30% (composition E).
Les préparations essayées ont été ensuite diluées directement dans le milieu d'incubation des mélanocytes.
A la fin de la période d'incubation, la viabilité des cellules a été évaluée par une méthode spectrophotométrique de dosage de l'activité des phosphatases intracellulaires.
Selon la méthode de Yan T. et al. (Anal. Biochem. 24 (1996) 103-108), on dose le p-nitrophénol résultant de la transformation du phosphate de p-nitrophényle par les phosphatases intra-cellulaires des cellules viables.
L'absorbance du p-nitrophénol libéré à 405 nm est directement proportionnelle au nombre des cellules viables présentes dans le puits de culture.

“And” between values parts separate entries of the source, which are not always exact repeats. Identical values can stand only once. Like-named read-outs stand apart in the source and are kept apart here.

On to `O=c1cc(CO)occ1O` [Acide Kojique, acide kojique], for which the activity at 250 µM in data set [1] (Melanocyte, step 1, Acide Kojique 250 µM in DMSO, mean, * p<0,05, read-out: mélanine / protéines (% du témoin) Moyenne) was 77.4%; in data set [1] (Melanocyte, step 2, Acide kojique 250 µM, mean (controls mean 119,2), * p<0,05, read-out: Mélanines/ protéines (% du témoin) Moyenne) it was 101%; in data set [1] (Melanocyte, step 2, Acide kojique 250 µM, mean normalised to controls = 100, read-out: % témoin), 84.5%; in data set [1] (Melanocyte, step 2, Acide kojique 250 µM, single replicate (controls mean 119,2), read-out: Mélanines/ protéines (% du témoin)) it was 106%. Also, the inhibition at 250 µM in data set [1] (Melanocyte, step 2, acide kojique 250 µM, p < 0.05, read-out: réduction du contenu intracellulaire en mélanine) amounted to 15.5%. For the same compound, in data set [1] (step 2, Acide kojique 250 µM, single replicate (controls mean 119,2), 4320 min, 250 µM), the “Mélanines/ protéines (% du témoin)” value is 93,2 % du témoin and 102,8 % du témoin and 94,1 % du témoin and 97,9 % du témoin.

Take `NCCCC(=O)O` [A, acide gamma-aminobutyrique]: the “dose à partir de laquelle un effet cytotoxique est détectable” value in data set [2] (human, 4320 min) came out at 0.5%.

With `CC(O)C(=O)O` (centres unmarked) [Actif E, acide lactique], the “dose à partir de laquelle un effet cytotoxique est détectable” value in data set [2] (72 h, detectable = less than 80 % viable cells) is 0.03%.

Values taken from patent EP2228050A1, “Use of gamma-aminobutyric acid as a depigmenting agent” (priority 2009, dated 2010).
